# pEC50, pIC50: −log10 of the molar value. Activity calls are given as the source filed them. The rule behind the calls is not given here.
# Assays:
# [1] = Half life in dog at 10 mg/kg, po measured upto 24 hrs by LC-MS/MS analysis; type: ADME, organism-based, Canis lupus familiaris; settings: in vivo
# [2] = Clearance in dog at 2 mg/kg, iv measured upto 24 hrs by LC-MS/MS analysis; type: ADME, organism-based, Canis lupus familiaris; settings: in vivo
# [3] = Oral bioavailability in dog at 10 mg/kg measured upto 24 hrs by LC-MS/MS analysis; type: ADME, organism-based, Canis lupus familiaris; settings: in vivo
# [4] = AUC(0 to t) in Sprague-Dawley rat at 10 mg/kg, po measured upto 24 hrs by LC-MS/MS analysis; type: ADME, organism-based; settings: in vivo
# [5] = Volume of distribution at steady state in Sprague-Dawley rat at 5 mg/kg, iv measured upto 24 hrs by LC-MS/MS analysis; type: ADME, organism-based; settings: in vivo, read-out: Vdss
# [6] = Cmax in dog at 2 mg/kg, iv measured upto 24 hrs by LC-MS/MS analysis; type: ADME, organism-based, Canis lupus familiaris; parameters: time < 24 hrs, dose 2 mg/kg, route iv; settings: in vivo
# [7] = Half life in Sprague-Dawley rat at 5 mg/kg, iv measured upto 24 hrs by LC-MS/MS analysis; type: ADME, organism-based; settings: in vivo
# [8] = AUC(0 to t) in dog at 10 mg/kg, po measured upto 24 hrs by LC-MS/MS analysis; type: ADME, organism-based, Canis lupus familiaris; settings: in vivo
# [9] = Cmax in Sprague-Dawley rat at 10 mg/kg, po measured upto 24 hrs by LC-MS/MS analysis; type: ADME, organism-based; parameters: dose 10 mg/kg, time < 24 hrs, route po; settings: in vivo
# [10] = Tmax in dog at 10 mg/kg, po measured upto 24 hrs by LC-MS/MS analysis; type: ADME, organism-based, Canis lupus familiaris; settings: in vivo
# [11] = Cmax in Sprague-Dawley rat at 5 mg/kg, iv measured upto 24 hrs by LC-MS/MS analysis; type: ADME, organism-based; parameters: dose 5 mg/kg, time < 24 hrs, route iv; settings: in vivo
# [12] = Clearance in Sprague-Dawley rat at 5 mg/kg, iv measured upto 24 hrs by LC-MS/MS analysis; type: ADME, organism-based; settings: in vivo
# [13] = Half life in Sprague-Dawley rat at 10 mg/kg, po measured upto 24 hrs by LC-MS/MS analysis; type: ADME, organism-based; settings: in vivo
# [14] = Cmax in dog at 10 mg/kg, po measured upto 24 hrs by LC-MS/MS analysis; type: ADME, organism-based, Canis lupus familiaris; parameters: dose 10 mg/kg, time < 24 hrs, route po; settings: in vivo
# [15] = AUC(0 to t) in Sprague-Dawley rat at 5 mg/kg, iv measured upto 24 hrs by LC-MS/MS analysis; type: ADME, organism-based; settings: in vivo
# [16] = Oral bioavailability in Sprague-Dawley rat at 10 mg/kg measured upto 24 hrs by LC-MS/MS analysis; type: ADME, organism-based; settings: in vivo
# [17] = Half life in dog at 2 mg/kg, iv measured upto 24 hrs by LC-MS/MS analysis; type: ADME, organism-based, Canis lupus familiaris; settings: in vivo
# [18] = Volume of distribution at steady state in dog at 2 mg/kg, iv measured upto 24 hrs by LC-MS/MS analysis; type: ADME, organism-based, Canis lupus familiaris; settings: in vivo, read-out: Vdss
# [19] = Tmax in Sprague-Dawley rat at 10 mg/kg, po measured upto 24 hrs by LC-MS/MS analysis; type: ADME, organism-based; settings: in vivo
# [20] = AUC(0 to t) in dog at 2 mg/kg, iv measured upto 24 hrs by LC-MS/MS analysis; type: ADME, organism-based, Canis lupus familiaris; settings: in vivo
# [21] = target: Androgen receptor (Homo sapiens) (UniProt P10275); experiment: In vivo induction of androgen receptor in human LNCaP/AR cells xenografted in SCID mouse assessed as reduction in AR protein level at 10 mg/kg, po administered once daily for 28 days by ELISA; settings: time 28.0 day
# [22] = Antitumor activity against human LNCaP/AR cells xenografted in SCID male mouse assessed as tumor growth inhibition at 10 mg/kg, po administered once daily for 28 days and measured every 3 days; type: functional; settings: Homo sapiens, LNCaP/AR, 672 h, time 28 day, read-out: TGI
# [23] = Toxicity in SCID male mouse xenografted with human LNCaP/AR cells assessed as animal weight loss at 10 mg/kg, po administered once daily for 28 days and measured every 3 days; type: organism-based; settings: in vivo, 672 h, time 28 day
# [24] = system: LNCaP; experiment: Antiproliferative activity against human LNCaP cells incubated for 6 days by CellTiter-Glo assay; type: functional, cell-based
# [25] = target: Voltage-gated inwardly rectifying potassium channel KCNH2 (Homo sapiens, UniProt Q12809); experiment: Inhibition of human ERG by patch clamp assay; type: toxicity
# [26] = Effect on androgen sensitive organs in testosterone propionate stimulated castrated male Sprague-Dawley rat assessed as seminal vesicles weight loss at 20 mg/kg, po administered once daily for 10 days and measured 24 hrs post last dose; type: functional; settings: time 11 day
# [27] = system: Mus musculus; experiment: In vivo induction of androgen receptor in human LNCaP/AR cells xenografted in SCID mouse assessed as reduction in PSA level at 10 mg/kg, po administered once daily for 28 days by ELISA; type: functional, organism-based; settings: time 28.0 day
# [28] = target: T1, Androgen receptor (Homo sapiens) (UniProt P10275); experiment: Potency index, ratio of galeterone DC50 to test compound DC50 for induction of androgen receptor degradation in human LNCaP cells; type: cell-based
# T1 sequence (whole entry): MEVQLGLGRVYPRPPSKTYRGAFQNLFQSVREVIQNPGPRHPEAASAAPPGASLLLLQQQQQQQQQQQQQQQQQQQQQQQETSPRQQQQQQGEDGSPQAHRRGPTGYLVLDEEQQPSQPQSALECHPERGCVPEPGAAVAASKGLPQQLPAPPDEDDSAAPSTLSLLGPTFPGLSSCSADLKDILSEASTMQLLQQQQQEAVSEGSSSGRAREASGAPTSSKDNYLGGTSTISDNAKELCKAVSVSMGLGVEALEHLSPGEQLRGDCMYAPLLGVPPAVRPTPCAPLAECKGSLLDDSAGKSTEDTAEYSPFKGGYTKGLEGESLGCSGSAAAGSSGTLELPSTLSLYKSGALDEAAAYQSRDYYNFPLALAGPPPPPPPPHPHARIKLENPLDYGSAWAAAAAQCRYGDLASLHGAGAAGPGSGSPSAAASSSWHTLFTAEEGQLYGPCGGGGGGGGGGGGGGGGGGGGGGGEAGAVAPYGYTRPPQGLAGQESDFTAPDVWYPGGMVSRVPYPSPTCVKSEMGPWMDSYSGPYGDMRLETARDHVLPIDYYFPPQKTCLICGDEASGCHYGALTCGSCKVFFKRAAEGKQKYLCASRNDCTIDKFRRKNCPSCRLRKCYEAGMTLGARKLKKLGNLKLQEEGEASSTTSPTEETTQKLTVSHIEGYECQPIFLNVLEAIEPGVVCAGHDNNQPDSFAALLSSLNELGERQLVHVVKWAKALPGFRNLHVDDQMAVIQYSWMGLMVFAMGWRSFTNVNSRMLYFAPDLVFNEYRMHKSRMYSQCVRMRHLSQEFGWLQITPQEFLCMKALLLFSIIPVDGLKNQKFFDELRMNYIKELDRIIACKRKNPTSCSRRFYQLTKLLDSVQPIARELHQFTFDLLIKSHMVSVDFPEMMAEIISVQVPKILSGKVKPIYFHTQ
# [29] = target: T2, Androgen receptor (Homo sapiens, UniProt P10275); experiment: Induction of androgen receptor degradation in human LNCaP cells incubated for 24 hrs by ELISA; type: cell-based
# T2 sequence (P10275 whole entry): T1 sequence (whole entry)
# [30] = system: Androgen receptor (Homo sapiens), P10275 [F877L]; experiment: Antagonist activity at androgen receptor F876L mutant expressed in HEK293 cells assessed as reduction in DHT-induced transcriptional activation of androgen receptor incubated for 24 hrs by Steady-Glo assay relative to control; type: cell-based; parameters: scale not given: the % may be the effect or the level left; settings: filed as antagonist
# [31] = Toxicity in SCID male mouse xenografted with human LNCaP/AR cells assessed as tolerability at 10 mg/kg, po administered once daily for 28 days and measured every 3 days; type: organism-based; settings: in vivo, 672 h, time 28 day
# [32] = target: T3, Steroid 17-alpha-hydroxylase/17,20 lyase (Homo sapiens, UniProt P05093); experiment: Inhibition of recombinant human CYP17A1 using progesterone as substrate incubated for 5 mins in presence of NADPH by LC-MS/MS analysis; type: ADME
# T3 sequence (P05093 whole entry): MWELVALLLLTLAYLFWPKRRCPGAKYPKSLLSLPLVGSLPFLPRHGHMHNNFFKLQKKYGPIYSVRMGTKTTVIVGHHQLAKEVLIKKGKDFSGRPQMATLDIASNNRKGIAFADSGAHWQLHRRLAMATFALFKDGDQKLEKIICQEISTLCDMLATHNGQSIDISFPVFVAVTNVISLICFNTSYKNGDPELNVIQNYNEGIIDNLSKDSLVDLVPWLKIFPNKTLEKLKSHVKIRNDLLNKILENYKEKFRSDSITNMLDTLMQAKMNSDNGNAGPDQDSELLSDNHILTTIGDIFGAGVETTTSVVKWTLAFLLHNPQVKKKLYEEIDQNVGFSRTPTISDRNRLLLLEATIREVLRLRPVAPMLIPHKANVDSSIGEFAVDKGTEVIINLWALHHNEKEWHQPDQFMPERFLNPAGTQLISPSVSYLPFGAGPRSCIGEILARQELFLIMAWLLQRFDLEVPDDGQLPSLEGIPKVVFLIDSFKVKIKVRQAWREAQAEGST
# [33] = Effect on androgen sensitive organs in testosterone propionate stimulated castrated male Sprague-Dawley rat assessed as ventral prostate weight loss at 20 mg/kg, po administered once daily for 10 days and measured 24 hrs post last dose; type: functional; settings: time 11 day
# Voltage-gated inwardly rectifying potassium channel KCNH2, sequence (Q12809 whole entry): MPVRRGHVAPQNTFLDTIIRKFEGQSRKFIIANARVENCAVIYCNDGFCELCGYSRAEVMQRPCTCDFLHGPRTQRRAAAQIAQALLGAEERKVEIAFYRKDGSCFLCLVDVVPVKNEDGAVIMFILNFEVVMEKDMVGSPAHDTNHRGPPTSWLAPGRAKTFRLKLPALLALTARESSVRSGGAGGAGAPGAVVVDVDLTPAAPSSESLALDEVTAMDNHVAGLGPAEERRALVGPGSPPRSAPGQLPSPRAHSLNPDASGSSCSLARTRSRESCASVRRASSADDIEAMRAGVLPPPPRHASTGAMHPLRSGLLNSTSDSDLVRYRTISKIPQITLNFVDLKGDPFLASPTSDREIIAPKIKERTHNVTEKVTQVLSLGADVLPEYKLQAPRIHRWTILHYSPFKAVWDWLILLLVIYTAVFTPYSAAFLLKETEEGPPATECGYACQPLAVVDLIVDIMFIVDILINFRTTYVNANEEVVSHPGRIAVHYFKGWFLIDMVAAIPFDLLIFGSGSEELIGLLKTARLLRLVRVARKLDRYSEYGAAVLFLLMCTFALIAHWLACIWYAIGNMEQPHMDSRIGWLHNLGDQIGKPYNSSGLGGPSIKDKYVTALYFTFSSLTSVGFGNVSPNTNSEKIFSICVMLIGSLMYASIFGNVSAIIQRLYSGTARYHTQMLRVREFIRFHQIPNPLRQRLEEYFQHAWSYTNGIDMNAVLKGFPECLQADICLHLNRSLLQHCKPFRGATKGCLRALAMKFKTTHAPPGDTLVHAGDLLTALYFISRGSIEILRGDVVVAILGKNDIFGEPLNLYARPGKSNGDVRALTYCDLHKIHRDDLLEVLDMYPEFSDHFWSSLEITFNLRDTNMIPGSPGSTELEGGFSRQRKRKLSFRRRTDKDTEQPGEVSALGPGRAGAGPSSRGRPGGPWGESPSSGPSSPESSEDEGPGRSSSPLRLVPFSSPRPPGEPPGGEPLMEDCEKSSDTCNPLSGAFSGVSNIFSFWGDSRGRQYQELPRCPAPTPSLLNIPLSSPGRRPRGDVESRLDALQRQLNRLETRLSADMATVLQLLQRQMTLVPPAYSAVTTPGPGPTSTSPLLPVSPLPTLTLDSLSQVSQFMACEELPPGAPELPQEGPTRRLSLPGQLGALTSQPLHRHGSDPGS
# Androgen receptor (Homo sapiens), P10275 [F877L], sequence (P10275 whole entry F877L): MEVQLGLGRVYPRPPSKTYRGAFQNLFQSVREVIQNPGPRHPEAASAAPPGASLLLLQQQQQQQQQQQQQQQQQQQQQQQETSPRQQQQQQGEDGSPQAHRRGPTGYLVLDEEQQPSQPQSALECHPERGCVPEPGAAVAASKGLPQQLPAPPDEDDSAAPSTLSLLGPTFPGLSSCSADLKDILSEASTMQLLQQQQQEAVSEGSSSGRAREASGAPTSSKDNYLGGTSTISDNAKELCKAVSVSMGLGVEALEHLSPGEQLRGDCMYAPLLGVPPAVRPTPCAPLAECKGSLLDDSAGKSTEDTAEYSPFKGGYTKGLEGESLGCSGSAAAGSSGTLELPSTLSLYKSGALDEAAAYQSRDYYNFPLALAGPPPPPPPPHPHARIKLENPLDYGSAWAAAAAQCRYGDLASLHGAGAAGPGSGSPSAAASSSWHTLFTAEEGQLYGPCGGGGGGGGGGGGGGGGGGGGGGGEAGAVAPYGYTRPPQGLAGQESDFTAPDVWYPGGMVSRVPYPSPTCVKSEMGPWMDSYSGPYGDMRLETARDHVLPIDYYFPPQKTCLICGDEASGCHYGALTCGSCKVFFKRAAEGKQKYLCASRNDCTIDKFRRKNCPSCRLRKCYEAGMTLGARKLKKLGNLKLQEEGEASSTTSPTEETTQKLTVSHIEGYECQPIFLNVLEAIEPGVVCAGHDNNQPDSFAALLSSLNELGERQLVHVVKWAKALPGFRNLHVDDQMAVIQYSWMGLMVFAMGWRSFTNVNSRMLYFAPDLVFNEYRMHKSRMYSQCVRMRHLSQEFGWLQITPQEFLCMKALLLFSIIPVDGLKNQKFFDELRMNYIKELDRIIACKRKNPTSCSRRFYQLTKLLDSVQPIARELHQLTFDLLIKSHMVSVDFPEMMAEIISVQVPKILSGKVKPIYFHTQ
smiles,measurement,setting,value
Cc1cn(C2=CCC3C4CC=C5C[C@@H](NC(=O)c6ccc(F)cc6)CC[C@]5(C)C4CC[C@]23C)cn1.Cl (some centres not stated),half-life,[1],744 min
same,clearance,[2],6.86 mL/min/kg
same,bioavailability,[3],44%
same,AUCt,[4],84338 h/ng/mL
same,Vd,[5],0.77 L/kg
same,Cmax,[6],1860 ng/mL
same,half-life,[7],383 min
same,AUCt,[8],10460 h/ng/mL
same,Cmax,[9],8800 ng/mL
same,Tmax,[10],6 h
same,Cmax,[11],14300 ng/mL
same,clearance,[12],1.82 mL/min/kg
same,half-life,[13],409 min
same,Cmax,[14],907 ng/mL
same,AUCt,[15],45408 h/ng/mL
same,bioavailability,[16],93%
same,half-life,[17],309 min
same,Vd,[18],1.92 L/kg
same,Tmax,[19],0.83 h
same,AUCt,[20],4737 h/ng/mL
Cc1cn(C2=CCC3C4CC=C5C[C@@H](NC(=O)c6ccc(F)cc6F)CC[C@]5(C)C4CC[C@]23C)cn1 (some centres not stated),Activity,[21],inactive
same,inhibition in vivo at 10 mg/kg,[22],50%
same,Activity,[23],Non-Toxic
same,pIC50,[24],6.49
same,pIC50,[25],< 4.40
same,AUCt,[4],22542 h/ng/mL
same,Activity,[26],-65%
same,Activity,[27],Active
same,Cmax,[9],1520 ng/mL
same,Ratio,[28],8.6
same,pEC50,[29],5.77
same,half-life,[13],361 min
same,Activity,[30],41.6%
same,Activity,[31],Non-Toxic
same,pIC50,[32],6.90
same,Tmax,[19],6 h
same,Activity,[33],-65%

# Reference: ChEMBL document CHEMBL5331145, “Discovery of a Novel Bifunctional Steroid Analog, YXG-158, as an Androgen Receptor Degrader and CYP17A1 Inhibitor for the Treatment of Enzalutamide-Resistant Prostate Cancer” (J Med Chem, 2023)
